Data set [1] concerns the target recombinant perforin (UniProt P10820). The class given is cell-based. The procedure:
Inhibition of perforin-mediated lysis of Jurkat cells.
The ability of the compounds to inhibit the lysis of nucleated (Jurkat T lymphoma) cells in the presence of 0.1% BSA, as measured by release of ^51Cr was measured. Jurkat target cells were labelled by incubation in medium with 100 μCi ^51Cr for one hour. The cells were then washed three times to remove unincorporated isotope and re-suspended at 1×10^5 cells per mL in RPMI buffer supplemented with 0.1% BSA. […] Each data point was performed in triplicate and an IC50 was calculated from the range of concentrations described to above.

Data set [2] deals with KHYG-1 NK cell-mediated lysis of K562 cells. Put plainly: Inhibition of KHYG-1 NK cell-mediated lysis of K562 cells (51Cr release). The class given is cell-based. The following applies: K562 target cells, Effector:Target 2:1, 4 hours at 37° C. Here is the method:
Inhibition of KHYG-1 NK Cell-Mediated Lysis of K562 Cells.
Test compounds were added to KHYG-1 cells at various concentrations up to 20 µM and incubated at RT for 20 minutes. 1×10^6 K562 target cells were labelled with 75 μCi ^51Cr in 200 μl RPMI for 90 mins at 37° C., cells were washed as described above and resuspended in 5 ml RPMI+0.1% BSA. 50 μl of ^51Cr labelled K562 leukemia target cells were added to each well of the KHYG-1 plate (Effector:Target 2:1) and incubated at 37° C. for 4 hours. ^51Cr release was assayed using a Skatron Harvesting Press and radioactivity estimated on a Wallac Wizard 1470 Automatic Gamma counter (Turku, Finland). The percentage of specific cytotoxicity was calculated by the formula: […]

Setting [3] is: lysis of Jurkat T lymphoma cells by recombinant perforin, 0.1% BSA, 30 min pre-incubation, 4 hours at 37° C.; read-out: Jurkat IC50.
The mark [4] stands for this setting: read-out: Jurkat IC50; lysis of Jurkat T lymphoma cells by recombinant perforin, 0.1% BSA, 30 min pre-incubation, 4 hours at 37° C.

Where two headings read alike, the source gives them in different places.

Consider 25 compounds from patent publication US9896443B2, “Perforin inhibiting benzenesulfonamide compounds, preparation and uses thereof” (Peter MacCallum Cancer Institute, priority 2012, dated 2018).

By melting point is commonly meant the temperature, or range, at which the solid turns liquid. As usually defined, the IC50 is the concentration needed to halve the response being measured. The term inhibition denotes the drop in the measured response relative to a control, in per cent.

Chain of recombinant perforin (P10820 whole entry): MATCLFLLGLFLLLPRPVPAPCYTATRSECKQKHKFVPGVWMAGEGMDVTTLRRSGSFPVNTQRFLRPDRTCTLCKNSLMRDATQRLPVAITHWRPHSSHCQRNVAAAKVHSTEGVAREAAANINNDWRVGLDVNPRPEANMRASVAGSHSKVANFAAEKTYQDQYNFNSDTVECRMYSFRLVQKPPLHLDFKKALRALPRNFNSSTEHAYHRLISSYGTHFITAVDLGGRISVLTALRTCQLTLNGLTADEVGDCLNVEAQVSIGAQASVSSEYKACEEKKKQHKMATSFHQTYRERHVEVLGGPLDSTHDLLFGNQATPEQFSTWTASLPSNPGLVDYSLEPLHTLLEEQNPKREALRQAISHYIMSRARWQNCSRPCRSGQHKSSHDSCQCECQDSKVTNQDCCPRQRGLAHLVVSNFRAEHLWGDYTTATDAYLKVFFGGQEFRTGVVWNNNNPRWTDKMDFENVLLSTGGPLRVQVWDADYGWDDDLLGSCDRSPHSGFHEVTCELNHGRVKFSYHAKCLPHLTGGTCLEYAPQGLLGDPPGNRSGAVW

With `CC1c2cc(-c3ccc(-c4cncc(NS(=O)(=O)c5ccc(F)cc5F)c4)s3)ccc2C(=O)N1C` (stereo not drawn) [Compound 51, N-(5-(5-(2,3-Dimethyl-1-oxoisoindolin-5-yl)thiophen-2-yl)pyridin-3-yl)-2,4-difluorobenzenesulfonamide], the melting point is 229 to 230 °C. For the compound `O=C1NCCc2cc(-c3ccc(-c4cncc(NS(=O)(=O)c5ccc(F)cc5F)c4)s3)ccc21` [Compound 52, 2,4-Difluoro-N-(5-(5-(1-oxo-1,2,3,4-tetrahydroisoquinolin-6-yl)thiophen-2-yl)pyridin-3-yl)benzensulphonamide], the melting point was in the range of 267 to 270 °C. Same read-out and setting: the figure for `O=C1c2ccc(-c3ccc(-c4cncc(NS(=O)(=O)c5ccc(F)cc5F)c4)s3)cc2CN1CCCO` [Compound 57, 2,4-Difluoro-N-(5-(5-(2-(3-hydroxypropyl)-1-oxoisoindolin-5-yl)thiophen-2-yl)pyridin-3-yl)benzenesulfonamide] is 239 to 241 °C; for `COc1ncc(-c2ccc(-c3ccc4c(c3)CN(C)C4=O)s2)cc1NS(=O)(=O)c1ccccc1` [Compound 36, N-(2-Methoxy-5-(5-(2-methyl-1-oxoisoindolin-5-yl)thiophen-2-yl)pyridin-3-yl)benzenesulphonamide] it is 280 to 283 °C.

For `CN1Cc2cc(-c3ccc(-c4ccc(NS(=O)(=O)c5ccc(F)cc5F)nc4)s3)ccc2C1=O` [Compound 42, 2,4-Difluoro-N-(5-(5-(2-methyl-1-oxoisoindolin-5-yl)thiophen-2-yl)pyridin-2-yl)benzenesulfonamide], the melting point lay within 269 to 272 °C. With `Cc1ccc(NS(=O)(=O)c2ccc(F)cc2F)cc1-c1ccc(-c2ccc3c(c2)CN(C)C3=O)s1` [Compound 61, 2,4-Difluoro-N-(4-methyl-3-(5-(2-methyl-1-oxoisoindolin-5-yl)thiophen-2-yl)phenyl)benzenesulfonamide], the melting point was in the range of 268 to 271 °C.

On to `CN1Cc2cc(-c3ccc(-c4cncc(NS(=O)(=O)c5ccc(OC(F)(F)F)cc5)c4)s3)ccc2C1=O` [Compound 24, N-(5-(5-(2-Methyl-1-oxoisoindolin-5-yl)thiophen-2-yl)pyridin-3-yl)-4-(trifluoromethoxy)benzenesulfonamide], for which the melting point was 293 to 296 °C.

With `CN1CCc2cc(-c3ccc(-c4cncc(NS(=O)(=O)c5ccc(F)cc5F)c4)s3)ccc2C1=O` [Compound 53, 2,4-Difluoro-N-(5-(5-(2-methyl-1-oxo-1,2,3,4-tetrahydroisoquinolin-6-yl)thiophen-2-yl)pyridin-3-yl)benzenesulfonamide], the melting point is 262 to 265 °C. Regarding `Cc1cc(F)ccc1S(=O)(=O)Nc1cncc(-c2ccc(-c3ccc4c(c3)CN(C)C4=O)s2)c1` [Compound 70, 4-Fluoro-2-methyl-N-(5-(5-(2-methyl-1-oxoisoindolin-5-yl)thiophen-2-yl)pyridin-3-yl)benzenesulphonamide], in data set [1] (setting [3]), the IC50 is 5530 nM. For the same compound, the inhibition at 20 µM in data set [2] (4 h) was 17.6 ± 13%. Taken in the same sequence, the figures for `COC(=O)c1ccc(S(=O)(=O)Nc2cncc(-c3ccc(-c4ccc5c(c4)CN(C)C5=O)s3)c2)cc1` [Compound 84, Methyl 4-(N-(5-(5-(2-methyl-1-oxoisoindolin-5-yl)thiophen-2-yl)pyridin-3-yl)sulfamoyl)benzoate] were 8160 nM and 8.84%.

`CN1Cc2cc(-c3ccc(-c4cnc(Cl)c(NS(=O)(=O)c5ccc(F)cc5F)c4)s3)ccc2C1=O` [Compound 40, 2,4-Difluoro-N-(2-chloro-5-(5-(2-methyl-1-oxoisoindolin-5-yl)thiophen-2-yl)pyridin-3-yl)benzenesulphonamide]: the IC50 in data set [1] (setting [3]) was 1030 nM. In data set [2] (4 h), the inhibition at 20 µM was determined as 85%.

On to `CN1Cc2cc(-c3ccc(-c4cnc(F)c(NS(=O)(=O)c5ccc(F)cc5F)c4)s3)ccc2C1=O` [Compound 39.Na, 2,4-Difluoro-N-(2-fluoro-5-(5-(2-methyl-1-oxoisoindolin-5-yl)thiophen-2-yl)pyridin-3-yl)benzenesulphonamide], for which the IC50 in data set [1] (setting [3]) stood at 750 nM. Further, the “Inhibition of KHYG-1 at 20 μM (%)” value in data set [2] was found to be 48%. On to `CN1Cc2cc(-c3ccc(-c4cncc(NS(=O)(=O)c5ccccc5C(F)(F)F)c4)s3)ccc2C1=O` [Compound 78, N-(5-(5-(2-Methyl-1-oxoisoindolin-5-yl)thiophen-2-yl)pyridin-3-yl)-2-(trifluoromethyl)benzenesulfonamide], for which the 50% inhibitory concentration (IC50) in data set [1] (setting [3]) came out at 1450 nM. The same compound yielded an inhibition at 20 µM in data set [2] (4 h) of 56 ± 9%. For `CN1Cc2cc(-c3ccc(-c4cnc(F)c(NS(=O)(=O)c5ccc(F)cc5F)c4)s3)ccc2C1=O` [Compound 39, 2,4-Difluoro-N-(2-fluoro-5-(5-(2-methyl-1-oxoisoindolin-5-yl)thiophen-2-yl)pyridin-3-yl)benzenesulphonamide], in that order: 1990 nM and 56%.

With `CN1Cc2cc(-c3ccc(-c4cncc(NS(=O)(=O)c5cccc(C(F)(F)F)c5)c4)s3)ccc2C1=O` [Compound 81, N-(5-(5-(2-Methyl-1-oxoisoindolin-5-yl)thiophen-2-yl)pyridin-3-yl)-3-(trifluoromethyl)benzenesulfonamides], in data set [1] (setting [3]), the IC50 is 910 nM. 20 µM produced 37.8 ± 19% inhibition in data set [2] (4 h).

Take `CN1Cc2cc(-c3ccc(-c4cncc(NS(=O)(=O)c5ccc(-c6ccno6)s5)c4)s3)ccc2C1=O` [Compound 76, 5-(Isoxazol-5-yl)-N-(5-(5-(2-methyl-1-oxoisoindolin-5-yl)thiophen-2-yl)pyridin-3-yl)thiophene-2-sulfonamide]: the concentration for half-maximal inhibition (IC50) in data set [1] (setting [3]) came to 7100 nM. This compound also showed an inhibition at 20 µM in data set [2] (4 h) of 47.5 ± 10%.

For the compound `CN1Cc2cc(-c3ccc(-c4cncc(NS(=O)(=O)c5ccc([N+](=O)[O-])cc5)c4)s3)ccc2C1=O` [Compound 29, N-(5-(5-(2-Methyl-1-oxoisoindolin-5-yl)thiophen-2-yl)pyridin-3-yl)-4-nitrobenzenesulfonamide], the IC50 in data set [1] (setting [3]) is 2740 nM. This compound displayed an inhibition at 20 µM in data set [2] (4 h) of 48%. For `CN1Cc2cc(-c3ccc(-c4cncc(NS(=O)(=O)c5c(F)cc(F)cc5F)c4)s3)ccc2C1=O` [Compound 8, 2,4,6-Trifluoro-N-(5-(5-(2-methyl-1-oxoisoindolin-5-yl)thiophen-2-yl)pyridin-3-yl)benzene-sulfonamide], in that order: 1760 nM and 52%.

In the case of `O=C1NCc2ccc(-c3ccc(-c4cncc(NS(=O)(=O)c5ccc(F)cc5F)c4)s3)cc21` [Compound 49, 2,4-Difluoro-N-(5-(5-(3-oxoisoindolin-5-yl)thiophen-2-yl)pyridin-3-yl)benzenesulfonamide], the IC50 in data set [1] (setting [4]) worked out at 13200 nM. Also, 20 µM produced 49% inhibition in data set [2] (4 h).

Take `CN1Cc2cc(-c3ncc(-c4cncc(NS(=O)(=O)c5ccc(F)cc5F)c4)s3)ccc2C1=O` [Compound 88, 2,4-Difluoro-N-(5-(2-(2-methyl-1-oxoisoindolin-5-yl)thiazol-5-yl)pyridin-3-yl)benzenesulphonamide]: in data set [1] (setting [4]), the half-maximal inhibitory concentration (IC50) worked out at 18800 nM. Besides, testing at 20 µM in data set [2] (4 h) gave an inhibition of 40.5 ± 23%. `CN1Cc2cc(-c3ccc(-c4cncc(NS(=O)(=O)c5ccccc5S(C)(=O)=O)c4)s3)ccc2C1=O` [Compound 82, N-(5-(5-(2-Methyl-1-oxoisoindolin-5-yl)thiophen-2-yl)pyridin-3-yl)-2-(methylsulfonyl)benzenesulfonamides]: the half-maximal inhibitory concentration (IC50) in data set [1] (setting [3]) stood at 6800 nM. This compound also had an inhibition at 20 µM in data set [2] (4 h) of 30.5 ± 11%. Consider `CN1Cc2cc(-c3ccc(-c4cncc(NS(=O)(=O)c5ccc([N+](=O)[O-])cc5)c4)s3)ccc2C1=O` [Compound 29.Na, N-(5-(5-(2-Methyl-1-oxoisoindolin-5-yl)thiophen-2-yl)pyridin-3-yl)-4-nitrobenzenesulfonamide], for which the IC50 in data set [1] (setting [3]) amounted to 3340 nM. In addition, in data set [2], the “Inhibition of KHYG-1 at 20 μM (%)” value turned out to be 49%. In the case of `CN1Cc2cc(-c3ccc(-c4cncc(NS(=O)(=O)c5ccc(Br)s5)c4)s3)ccc2C1=O` [Compound 87, 5-Bromo-N-(5-(5-(2-methyl-1-oxoisoindolin-5-yl)thiophen-2-yl)pyridin-3-yl)thiophene-2-sulphonamide], the IC50 in data set [1] (setting [4]) came to 1800 nM. In addition, the inhibition at 20 µM in data set [2] (4 h) was 31.6 ± 6%. Turning to `CN1Cc2cc(-c3ccc(-c4cncc(NS(=O)(=O)c5ccc(Cl)cc5)c4)s3)ccc2C1=O` [Compound 11, 4-Chloro-N-(5-(5-(2-methyl-1-oxoisoindolin-5-yl)thiophen-2-yl)pyridin-3-yl)benzenesulfonamide], the half-inhibitory concentration (IC50) in data set [1] (setting [3]) came to 5390 nM. In data set [2], this compound gave an inhibition at 20 µM of 17%. Turning to `CN1Cc2cc(-c3ccc(-c4cncc(NS(=O)(=O)c5ccc(C(=O)O)cc5)c4)s3)ccc2C1=O` [Compound 73, 4-(N-(5-(5-(2-Methyl-1-oxoisoindolin-5-yl)thiophen-2-yl)pyridin-3-yl)sulfamoyl)benzoic acid], the IC50 in data set [1] (setting [3]) worked out at 750 nM. For the same compound, in data set [2] (4 h), the inhibition at 20 µM was 56.9 ± 29.6%.
